Test results as given in patent US20100240713A1, “AROMATIC AND HETEROAROMATIC COMPOUNDS USEFUL IN TREATING IRON DISORDERS” (XENON PHARMACEUTICALS INC., priority 2007, published 2010).
pIC50: −log10 of the molar value. Structures can show the parent of a compound that is named as a salt.

target: T1, DMT1 (Homo sapiens, UniProt P49281); test: DMT1 activity assay (IC50 activity level, Table 1); format: cell-based; details: inhibition of DMT1
T1 sequence (P49281 1-568): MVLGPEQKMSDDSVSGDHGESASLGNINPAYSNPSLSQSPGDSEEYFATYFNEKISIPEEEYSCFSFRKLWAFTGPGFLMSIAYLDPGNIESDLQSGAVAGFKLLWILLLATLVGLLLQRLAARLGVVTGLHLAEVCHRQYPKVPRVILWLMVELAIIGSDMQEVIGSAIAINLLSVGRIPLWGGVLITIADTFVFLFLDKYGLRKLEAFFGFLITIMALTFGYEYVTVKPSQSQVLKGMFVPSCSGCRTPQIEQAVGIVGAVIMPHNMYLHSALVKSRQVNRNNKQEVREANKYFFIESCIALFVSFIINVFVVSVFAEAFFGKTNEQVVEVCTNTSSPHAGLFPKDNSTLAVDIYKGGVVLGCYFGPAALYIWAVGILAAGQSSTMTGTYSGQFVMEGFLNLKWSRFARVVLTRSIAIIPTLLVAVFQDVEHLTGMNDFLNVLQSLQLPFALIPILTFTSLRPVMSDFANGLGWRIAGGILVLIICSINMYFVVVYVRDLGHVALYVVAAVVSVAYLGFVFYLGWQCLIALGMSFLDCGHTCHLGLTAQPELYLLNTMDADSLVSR
Source text: This example discloses various in vitro assay for testing and profiling test agents against DMT1 stably expressed in cells of either an endogenous or recombinant origin. These assays can use stable cell lines overexpressing DMT1 or intestinal cells and intestinal tissue expressing endogenous DMT1. DMT1 function could also be assessed in other cell types that express DMT1. Of greatest relevance would be the erythrocytes (e.g. K562 cells) or hepatocytes (e.g. […]).
DMT1 function can be assessed in a number of ways, including monitoring fluorescence changes of an iron fluorophore (e.g. calcein), monitoring uptake of radiolabelled iron (^55Fe or ^59Fe) (Picard et al., J. Biol. Chem., 2000, 275(46):35738-45 and Wetli et al., Chem. Biol. 2006 September; 13(9):965-72), or by assessing the current or transport of iron and other metals into the cells or tissues using standard electrophysiological techniques (Gunshin et al., Nature, 1997, 388(6641):482-8.).
Variations of these assays involve alterations of incubation times, the iron status of the cells and tissues (which may be modulated by chemical chelators or by harvesting from iron deficient animals), the metal cation detected and the pH of the reaction can generally be made by conventional techniques known to those skilled in the art.
The Example numbers provided in Table 1 correspond to the Examples herein: […]

`Cc1cc(C)c(CNC(=N)N)c(C)c1CNC(=N)N` [Example 1, N-(3-guanidinomethyl-2,4,6-trimethylbenzyl)guanidine, bis(p-toluenesulfonate)] and `Cc1cc(C)c(CSC(=N)N)c(C)c1CSC(=N)N` [Example 3, (2,4,6-trimethyl-1,3-phenylene)bis(methylene)dicarbamimidothioate dihydrochloride] cannot be ordered by pIC50: no more than 6.00 for the first, 6.00 to 7.00 for the second.

`CC(C)c1cc(C(C)C)c(CSC(=N)N)cc1CSC(=N)N` [Example 3.1, (4,6-diisopropyl-1,3-phenylene)bis(methylene)dicarbamimidothioate dihydrobromide] and `Cc1cc(C)c(CSC(=N)N)cc1CSC(=N)N` [Example 3.16, (4,6-dimethyl-1,3-phenylene)bis(methylene)dicarbamimidothioate dihydrochloride] cannot be ordered by pIC50: no more than 6.00 for the first, 6.00 to 7.00 for the second.

`N=C(N)SCc1cccc(CSC(=N)N)c1` [Example 3.2, 1,3-phenylenebis(methylene)dicarbamimidothioate dihydrobromide] and `Cc1cc(CSC(=N)N)cc(CSC(=N)N)c1` [Example 3.3, (5-methyl-1,3-phenylene)bis(methylene)dicarbamimidothioate dihydrobromide] cannot be ordered by pIC50: no more than 6.00 for the first, no more than 6.00 for the second.

`CCOC(=O)c1cc(C(=O)OCC)c(CSC(=N)N)cc1CSC(=N)N` [Example 3.4, diethyl 4,6-bis(carbamimidoylthiomethyl)isophthalate dihydrobromide] and `COc1c(CSC(=N)N)cc(C)cc1CSC(=N)N` [Example 3.18, (2-methoxy-5-methyl-1,3-phenylene)bis(methylene)dicarbamimidothioate dihydrobromide] cannot be ordered by pIC50: no more than 6.00 for the first, no more than 6.00 for the second.

`Cc1c(C)c(CSC(=N)N)c(C)c(CSC(=N)N)c1C` [Example 3.5, (2,4,5,6-tetramethyl-1,3-phenylene)bis(methylene)dicarbamimidothioate dihydrochloride] and `Cc1c(C)c(C)c(CSC(=N)N)c(CSC(=N)N)c1C` [Example 3.22, (3,4,5,6-tetramethyl-1,2-phenylene)bis(methylene)dicarbamimidothioate dihydrobromide] cannot be ordered by pIC50: no more than 6.00 for the first, no more than 6.00 for the second.

`N=C(N)SCc1c(Cl)c(Cl)c(Cl)c(CSC(=N)N)c1Cl` [Example 3.6, (2,4,5,6-tetrachloro-1,3-phenylene)bis(methylene)dicarbamimidothioate dihydrochloride] and `Cc1c(O)c(C)c(CSC(=N)N)c(C)c1CSC(=N)N` [Example 3.19, (5-hydroxy-2,4,6-trimethyl-1,3-phenylene)bis(methylene) dicarbamimidothioate dihydrochloride] cannot be ordered by pIC50: no more than 6.00 for the first, 6.00 to 7.00 for the second.

`N=C(N)SCc1nnc(CSC(=N)N)n1N` [Example 3.7, (4-amino-4H-1,2,4-triazole-3,5-diyl)bis(methylene)dicarbamimidothioate dihydrochloride] and `N=C(N)SCc1n[nH]c(CSC(=N)N)n1` [Example 3.8, (1H-1,2,4-triazole-3,5-diyl)bis(methylene)dicarbamimidothiodate dihydrochloride] cannot be ordered by pIC50: no more than 6.00 for the first, no more than 6.00 for the second.

`N=C(N)SCc1ccc(CSC(=N)N)s1` [Example 3.9, thiophene-2,5-diylbis(methylene)dicarbamimidothioate dihydrochloride] and `N=C(N)SCc1cccc(CSC(=N)N)n1` [Example 3.12, pyridine-2,6-diylbis(methylene)dicarbamimidothioate dihydrobromide] cannot be ordered by pIC50: no more than 6.00 for the first, no more than 6.00 for the second.

`N=C(N)SCc1sc(CSC(=N)N)c(-c2ccccc2)c1-c1ccccc1` [Example 3.10, (3,4-diphenylthiophene-2,5-diyl)bis(methylene)dicarbamimidothioate dihydrobromide] and `N=C(N)SCc1ccc2ccccc2c1CSC(=N)N` [Example 3.20, naphthalene-1,2-diylbis(methylene)dicarbamimidothioate dihydrobromide] cannot be ordered by pIC50: no more than 6.00 for the first, no more than 6.00 for the second.

`Cc1c(CSC(=N)N)c(C)c(CSC(=N)N)c(C)c1CSC(=N)N` [Example 3.11, (2,4,6-trimethylbenzene-1,3,5-triyl)tris(methylene) tricarbamimidothioate trihydrobromide] and `Cc1nc(C)c(CSC(=N)N)c(C)c1CSC(=N)N` [Example 8, (2,4,6-trimethylpyridine-3,5-diyl)bis(methylene)dicarbamimidothioate dihydrochloride] cannot be ordered by pIC50: no more than 6.00 for the first, no more than 6.00 for the second.

`N=C(N)SCc1cccc2cccc(CSC(=N)N)c12` [Example 3.13, naphthalene-1,8-diylbis(methylene)dicarbamimidothioate dihydrobromide] and `N=C(N)SCc1ccccc1CSC(=N)N` [Example 3.15, (1,2-phenylene)bis(methylene)dicarbamimidothioate dihydrobromide] cannot be ordered by pIC50: no more than 6.00 for the first, no more than 6.00 for the second.

`N#Cc1c(CSC(=N)N)cccc1CSC(=N)N` [Example 3.14, (2-cyano-1,3-phenylene)bis(methylene)dicarbamimidothioate dihydrobromide] and `Cc1c(CSC(=N)N)cccc1CSC(=N)N` [Example 3.21, (2-methyl-1,3-phenylene)bis(methylene)dicarbamimidothioate dihydrobromide] cannot be ordered by pIC50: no more than 6.00 for the first, 6.00 to 7.00 for the second.

`Cc1c(CSC(=N)N)cc(CSC(=N)N)c(C)c1Br` [Example 3.17, (5-bromo-4,6-dimethyl-1,3-phenylene)bis(methylene) dicarbamimidothioate dihydrochloride] and `Cc1cc(CSC(=N)N)c(O)c(CSC(=N)N)c1` [Example 6.2, (2-hydroxy-5-methyl-1,3-phenylene)bis(methylene)dicarbamimidothioate dihydrobromide] cannot be ordered by pIC50: no more than 6.00 for the first, no more than 6.00 for the second.

`N=C(N)Sc1cccc(SC(=N)N)c1` [Example 5, 1,3-phenylene dicarbamimidothioate dihydroiodide] and `CC(C)(SC(=N)N)c1cccc(C(C)(C)SC(=N)N)c1` [Example 6, 2-{1-[3-(1-carbamimidoylsulfanyl-1-methylethyl)phenyl]-1-methylethyl}-isothiourea dihydrobromide] cannot be ordered by pIC50: no more than 6.00 for the first, no more than 6.00 for the second.

`Cc1cc(C)c(C(C)SC(=N)N)c(C)c1C(C)SC(=N)N` (centres unmarked) [Example 6.1, 2-{1-[3-(1-carbamimidoylsulfanylethyl)-2,4,6-trimethylphenyl]ethyl}-isothiourea dihydrobromide] and `Cc1c(CSC(=N)N)sc(CSC(=N)N)c1C` [Example 6.3, (3,4-dimethylthiophene-2,5-diyl)bis(methylene)dicarbamimidothioate dihydrobromide] cannot be ordered by pIC50: 6.00 to 7.00 for the first, no more than 6.00 for the second.

`Cc1c(CSC(=N)N)sc2sc(CSC(=N)N)c(C)c12` [Example 6.4, (3,4-dimethylthieno[2,3-b]thiophene-2,5-diyl)bis(methylene)dicarbamimidothioate dihydrobromide] and `COc1ccc(CSC(=N)N)cc1CSC(=N)N` [Example 6.5, (4-methoxy-1,3-phenylene)bis(methylene)dicarbamimidothioate dihydrobromide] cannot be ordered by pIC50: no more than 6.00 for the first, no more than 6.00 for the second.

`COc1cc(CSC(=N)N)cc(CSC(=N)N)c1` [Example 6.6, (5-methoxy-1,3-phenylene)bis(methylene)dicarbamimidothioate dihydrobromide] and `N=C(N)SC(=O)c1sc(C(=O)SC(=N)N)c(Cl)c1Cl` [Example 9, 2-(5-carbamimidoylsulfanecarbonyl-3,4-dichlorothiophene-2-carbonyl)isothiourea dihydrochloride] cannot be ordered by pIC50: no more than 6.00 for the first, no more than 6.00 for the second.

tested on: not given; test: not given; details: not given

Compared with `CC(C)c1cc(C(C)C)c(CSC(=N)N)cc1CSC(=N)N` (as salt: hydrobromid) [Example 3.1, (4,6-diisopropyl-1,3-phenylene)bis(methylene)dicarbamimidothioate dihydrobromide], `Cc1cc(CSC(=N)N)cc(CSC(=N)N)c1` (as salt: hydrobromid) [Example 3.3, (5-methyl-1,3-phenylene)bis(methylene)dicarbamimidothioate dihydrobromide] is higher in melting point: 208 to 210 °C for the first, 240 to 241 °C for the second.

First: CCOC(=O)c1cc(C(=O)OCC)c(CSC(=N)N)cc1CSC(=N)N (as salt: hydrobromid) [Example 3.4, diethyl 4,6-bis(carbamimidoylthiomethyl)isophthalate dihydrobromide]
Second: N=C(N)SCc1cccc(CSC(=N)N)n1 (as salt: hydrobromid) [Example 3.12, pyridine-2,6-diylbis(methylene)dicarbamimidothioate dihydrobromide]
The melting point of the first is higher: 237 to 238 °C for the first, 208 to 210 °C for the second.
